# From US20240391923A1, “METHIONINE ADENOSYLTRANSFERASE 2A INHIBITOR FOR TREATING MTAP DELETION-TYPE CANCER” (SUZHOU GENHOUSE BIO CO., LTD., priority 2022, published 2024)
# Like-named read-outs stand apart in the source and are kept apart here.
# How the values were obtained:
# [1] = test system: SDMA in human colon cancer cell line HCT116; assay: Cell symmetric dimethylarginine (SDMA) test, In-cell Western, HCT116 (MTAP wild-type); format: cell-based; details: Homo sapiens, HCT-116, 96 h
# Outline: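 SDMA level, an indirect readout of cellular MAT2A inhibition, measured by In-cell Western as background-subtracted 800/700 nm signal against DRAQ5. Cells exposed 4 days to six 1:4-diluted doses from 6 μM; inhibition relative to DMSO, IC50 from sigmoidal fit.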
# Hut-78 cell strain = assay: Tumor cell proliferation inhibition assay (CellTiter-Glo), Hut-78; format: cell-based; details: Hut-78 cells, 5-day treatment
# Procedure: After the HCT116-MTAP-knockout (−/−) cell strain, the HCT116-MTAP wild-type(+/+)-cell strain, the DOHH-2 cell strain, or the Hut-78 cell strain was treated with the test compound for 5 days, the ATP level was measured using a CellTiter-Glo kit of Promega to evaluate the inhibition of the test compound against the growth of the tumor cell strain.
# In the present application, the HCT116-MTAP-knockout (−/−) cell strain, the HCT116-MTAP wild-type (+/+)-cell strain, the DOHH-2 cell strain, or the Hut-78 cell strain was seeded into a 96-well cell culture plate at an appropriate cell density. After 24 h, the cells were treated using the test compounds diluted 1:3 fold at the highest concentration of 10 μM for 10 gradients, and a DMSO treatment group was set up separately. The cells were cultured in a 37° C./5% CO2 incubator for 5 days.
# [2] = test system: HCT116-MTAP wild-type (+/+)-cell strain; assay: Tumor cell proliferation inhibition assay (CellTiter-Glo), HCT116-MTAP wild-type (+/+); format: cell-based; details: Homo sapiens, 120 h, HCT116-MTAP wild-type (+/+) cells, 5-day treatment
# Outline: (§1)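 Ten-point compound titration (1:3, highest 10 μM) started 24 h after plating, DMSO group included; cultures kept 5 days at 37° C. with 5% CO2 before CellTiter-Glo ATP readout of growth inhibition.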
# [3] = test system: HCT116-MTAP-knockout (−/−) cell strain; assay: Tumor cell proliferation inhibition assay (CellTiter-Glo), HCT116-MTAP-knockout (-/-); format: cell-based; details: Homo sapiens, 120 h, HCT116-MTAP-knockout (−/−) cells, 5-day treatment
# Outline: as §1
# [4] = test system: SDMA in HCT116-MTAP-knockout cell line; assay: Cell symmetric dimethylarginine (SDMA) test, In-cell Western, HCT116-MTAP-knockout; format: cell-based; details: Homo sapiens, 96 h
# [5] = molecular target: MAT2A recombinant protein (Homo sapiens, UniProt P31153); assay: MAT2A inhibitory activity (malachite green colorimetric enzyme assay); format: biochemical
# Outline: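 Compounds tested over 10 points, 3-fold dilutions, top final concentration 1000 nM. Enzyme reaction: MAT2A, L-methionine, ATP, room temperature, 60 min, in HEPES pH 7.5 buffer with KCl, MgCl2 and DTT; inorganic phosphate read colorimetrically (malachite green, A630). Inhibition vs log concentration fitted for IC50.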
# [6] = IC50 score class, read-out: Cell 96 h SDMA Inhibition (HCT116-MTAP+/+) (score)
# [7] = read-out: Cell 96 h SDMA inhibition (HCT116-MTAP+/+)
# [8] = Homo sapiens, HuT78, 120 h, IC50 score, read-out: Tumor cell 5-day relative growth inhibition (Hut-78) (nM), score
# [9] = IC50 score, read-out: Tumor cell 5-day relative growth inhibition (HCT116-MTAP+/+) (nM), score
# [10] = IC50 value, read-out: Tumor cell 5-day relative growth inhibition (HCT116-MTAP+/+)
# [11] = IC50 score, read-out: Tumor cell 5-day relative growth inhibition (HCT116-MTAP−/−) (nM), score
# [12] = IC50 value, read-out: Tumor cell 5-day relative growth inhibition (HCT116-MTAP−/−)
# [13] = IC50 score class, read-out: Cell 96 h SDMA Inhibition (HCT116-MTAP−/−) (score)
# [14] = read-out: Cell 96 h SDMA Inhibition (HCT116-MTAP−/−)
# [15] = IC50 score class, read-out: MAT2A Inhibition (score)
# [16] = Homo sapiens, HuT78, 120 h, IC50 value, read-out: Tumor cell 5-day relative growth inhibition (Hut-78)
# Sequence of MAT2A recombinant protein (P31153 whole entry): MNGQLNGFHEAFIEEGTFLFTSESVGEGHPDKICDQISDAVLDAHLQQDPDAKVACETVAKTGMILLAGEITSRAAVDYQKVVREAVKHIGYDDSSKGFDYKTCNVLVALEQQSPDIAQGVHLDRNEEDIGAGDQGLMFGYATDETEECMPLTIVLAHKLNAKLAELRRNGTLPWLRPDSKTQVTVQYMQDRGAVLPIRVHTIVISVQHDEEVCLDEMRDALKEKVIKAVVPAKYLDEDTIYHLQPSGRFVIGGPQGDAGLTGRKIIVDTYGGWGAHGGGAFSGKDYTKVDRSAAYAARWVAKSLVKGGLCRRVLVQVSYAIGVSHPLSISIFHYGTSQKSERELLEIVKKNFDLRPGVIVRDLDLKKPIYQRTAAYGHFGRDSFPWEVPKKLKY
SMILES,"IC50 [1, 6] [nM]","IC50 [1, 7] [nM]",IC50 (Hut-78 cell strain; [8]) [nM],"IC50 (Hut-78 cell strain; IC50 value, read-out: Tumor cell 5-day relative growth inhibition (Hut-78)) [nM]","IC50 [2, 9] [nM]","IC50 [2, 10] [nM]","IC50 [3, 11] [nM]","IC50 [3, 12] [nM]","IC50 [4, 13] [nM]","IC50 [4, 14] [nM]","IC50 [5, 15] [nM]",IC50 ([5]; read-out: MAT2A Inhibition) [nM],IC50 (Hut-78 cell strain; [16]) [nM]
Cc1ncccc1-n1c(=O)c2nn(C)cc2c2ccc(Cl)cc21 [Compound B233],200 to 1000,250,< 500,8.05,< 500,135,< 500,15.5,< 200,6.35,< 100,13.4,–
Cc1ncccc1-n1c(=O)c2[nH]ncc2c2ccc(OC(F)(F)F)cc21 [Compound B101],> 3000,> 3000,< 500,–,≥ 2000,> 2000,–,–,< 200,48.7,< 100,59.7,50.4
CNC(=O)CC1N=c2c(c3ccc(Cl)cc3n(-c3cccnc3)c2=O)=N1 (stereo not shown) [Compound B37],1000 to 3000,1260,≥ 2000,–,≥ 2000,> 2000,–,–,200 to 1000,888,< 100,51.7,6430
Cc1ccc(-n2c(=O)c3nn(C)cc3c3ccc(C(F)(F)F)nc32)cn1 [Compound B223],200 to 1000,583,500 to 2000,–,≥ 2000,> 2000,–,–,200 to 1000,692,–,–,1360
COc1ccc(-n2cc3c(n2)c(=O)n(-c2ccccc2)c2nc(C(F)(F)F)ccc32)cc1 [Compound B218],> 3000,> 3000,< 500,–,≥ 2000,3990,–,–,< 200,39.5,< 100,77.9,130
NC(=O)CC1N=c2c(c3ccc(Cl)cc3n(-c3cccnc3)c2=O)=N1 (stereo not shown) [Compound B36],< 200,24.7,≥ 2000,–,≥ 2000,> 2000,–,–,1000 to 3000,2730,< 100,55.2,> 2000
Cc1ncccc1-n1c(=O)c2n[nH]cc2c2ccc(C(F)(F)F)nc21 [Compound B96],< 200,158,< 500,–,< 500,293,< 500,5.14,< 200,5.2,< 100,29.4,27.2
Cn1cc2c(n1)c(=O)n(-c1cncc(O)c1)c1nc(C(F)(F)F)ccc21 [Compound B221],200 to 1000,475,≥ 2000,–,≥ 2000,> 2000,–,–,1000 to 3000,2540,< 100,52.7,10600
Cc1ncccc1-n1c(=O)c2nn(C3CC3)cc2c2ccc(C(F)(F)F)nc21 [Compound B211],1000 to 3000,1020,< 500,–,500 to 2000,1150,–,–,< 200,39.1,< 100,35.8,47.7
Cn1cc2c(n1)c(=O)n(-c1cnccn1)c1nc(C(F)(F)F)ccc21 [Compound B227],> 3000,3030,≥ 2000,–,≥ 2000,≥ 2000,–,–,> 3000,4690,< 100,51.8,4710
CCn1nc2c(=O)n(-c3cccnc3)c3cc(Cl)ccc3c2c1F [Compound B33],> 3000,4880,500 to 2000,–,≥ 2000,> 2000,–,–,1000 to 3000,2650,< 100,25.6,1100
